{
  "source": "patent US4668703A",
  "about": "“γ-allenyl-γ-aminobutyric acids” (Syntex (U.S.A.) Inc., priority 1985, dated 1987)",
  "key": {"N. Brasiliensis": {"system": "N. Brasiliensis", "test": "N. Brasiliensis assay, third larval stage", "details": "50 μg/ml, 37° C., control 100%, read-out: Percent Viable", "procedure": "The compound was tested at 50 μg/ml against the third larval stage of N. Brasiliensis at approximately 50 L3 /well; this mixture was incubated at 37° C. for total of 7 days. Activity of the compound was checked on days 1, 4. and 7 post-inoculation."}, "C. elegans": {"system": "C. elegans", "test": "C. elegans assay", "details": "Caenorhabditis elegans, read-out: % Active", "procedure": "The compounds tested were dissolved in DMSO at 10 mg/ml to give sample stock solutions. During assay, 1 ml M9 buffer (6 g Na2 HPO4, 3 g KH2 PO4, 5 g NaCl, and 0.25 g MgSO4 H2 O per liter) was placed in each of the 24-wells in a tissue culture plate. 10 μl of sample stock solution was added respectively to each of 23 wells. The remaining well served as drug-free control.\nAt time 0, 1 drop of C. elegans suspension was dropped into each well (25-50 adults). At 1 hour, the number of active worms versus total in each well was recorded."}, "[1]": {"system": "γ-aminobutyric acid transaminase", "details": "cited from earlier work"}, "[2]": {"system": "brain level of γ-aminobutyric acid", "details": "in animals; cited from earlier work"}, "[3]": {"test": "Toxicity test (acute, oral, mouse)", "format": "in vivo", "details": "mouse, in vivo, po; male mice, CMC vehicle, observed for 21 days", "procedure": "(§1) 4-amino-5,6-heptadienoic acid prepared in CMC vehicle was administered once daily to groups of 6 male mice at doses of 0, 62.5, 125, 250 and 500 mg/Kg. […] Therefore, the LD50 (acute, oral, mouse) for 4-amino-5,6-heptadienoic acid is greater than 500 mg/Kg."}, "mouse": {"system": "mouse", "test": "Toxicity test (acute, oral, mouse)", "format": "in vivo", "details": "male mice, once daily, 62.5, 125, 250 and 500 mg/Kg, observed for 21 days", "procedure": "as §1"}},
  "note": "Counter-ions that a name gives are not always drawn. Like-named read-outs stand apart in the source and are kept apart here.",
  "data": [
    {"smiles": "C=C=CC(N)CCC(=O)OCCCCCCCC", "note": "(stereo not shown) [Octyl 4-amino-5,6-heptadienoate para-toluene sulfonic acid salt]", "values": [
      {"measurement": "viability at 50 µg/mL", "setting": "N. Brasiliensis; 24 h, day 1", "result": 64, "unit": "%"},
      {"measurement": "viability at 50 µg/mL", "setting": "N. Brasiliensis; 96 h, day 4", "result": 0, "unit": "%"},
      {"measurement": "viability at 50 µg/mL", "setting": "N. Brasiliensis; 168 h, day 7", "result": 0, "unit": "%"},
      {"measurement": "activity at 100 µg/mL", "setting": "C. elegans; active worms versus total at 1 hour, 10 μl of 10 mg/ml DMSO stock added to 1 ml M9 buffer, control 100%", "result": 45, "unit": "%"}
    ]},
    {"smiles": "C#CC(N)CCC(=O)O", "note": "(stereo not shown) [γ-acetylenic]", "values": [
      {"measurement": "irreversible inhibitors of γ-aminobutyric acid transaminase", "setting": "[1]", "result": "potent irreversible inhibitors"},
      {"measurement": "increase of the brain level of γ-aminobutyric acid", "setting": "[2]", "result": "significantly increase"}
    ]},
    {"smiles": "NC(CF)CCC(=O)O", "note": "(stereo not shown) [γ-monofluoromethyl-γ-aminobutyric acid]", "values": [
      {"measurement": "irreversible inhibitors of γ-aminobutyric acid transaminase", "setting": "[1]", "result": "potent irreversible inhibitors"},
      {"measurement": "increase of the brain level of γ-aminobutyric acid", "setting": "[2]", "result": "significantly increase"}
    ]},
    {"smiles": "C=C=CC(N)CCC(=O)O", "note": "(stereo not shown) [4-amino-5,6-heptadienoic acid]", "values": [
      {"measurement": "LD50 at 504 h", "setting": "[3]", "result": "> 500", "unit": "mg/kg"},
      {"measurement": "deaths", "setting": "mouse", "result": "no deaths"}
    ]},
    {"smiles": "C=C=C(C)C(N)CCC(=O)OCCCCCCCC", "note": "(stereo not shown) [Octyl 4-amino-5-methyl-5,6-heptanoate, octyl-4-amino-5-methyl-5,6-heptadienoate para-toluene-sulfonic acid salt]", "values": [
      {"measurement": "activity at 100 µg/mL", "setting": "C. elegans; 1 h", "result": 25, "unit": "%"}
    ]},
    {"smiles": "C=CC(N)CCC(=O)O", "note": "(stereo not shown) [γ-vinyl-γ-aminobutyric acid]", "values": [
      {"measurement": "irreversible inhibitors of γ-aminobutyric acid transaminase", "setting": "[1]", "result": "potent irreversible inhibitors"},
      {"measurement": "increase of the brain level of γ-aminobutyric acid", "setting": "[2]", "result": "significantly increase"}
    ]}
  ]
}
